Data as given in patent US6469065B1, “Nitrosated and nitrosylated α-adrenergic receptor antagonist, compositions and methods of use” (NitroMed, Inc., priority 1996, dated 2002).

How the values were obtained:
anesthetized rabbit [1] = assay: In vivo Comparative Erectile Responses—II: intracavernosal blood pressure (ICP) and duration; parameters: species or system White New Zealand male rabbits
Description: White New Zealand male rabbits (2.6-3.0 kg) were anesthetized with pentobarbital sodium (30 mg/kg). The femoral artery was exposed and indwelled with PE 50 tubing connected to a transducer for recording systemic arterial blood pressure. The ventral aspect of the penis was then exposed via surgical cut and intracavernosal blood pressure was measured using a 23 gauge needle inserted to the corpus cavernosum. The contralateral corpus cavemosum was implanted with a 23 gauge needle for the administration of drugs.
Following all surgical procedures, rabbits were allowed to rest for 10 minutes during which intracavernosal blood pressure (ICP) and mean arterial blood pressure (MABP) were continuously recorded.
Drugs at various concentrations were prepared as aqueous solution (injection volume of 200 μL). Following drug injection the tubing was flushed with 100 μL distilled water. All drug treatments were administered after stable intracavernosal and systemic blood pressures were established. If an increase in intracavernosal blood pressure (ICP) was observed, the effect was monitored throughout its entire duration.
The following parameters were obtained from each experimental recording: (i) Maximum ICP (mm Hg), (ii) Duration (minutes), defined as the time in minutes, that the increase in ICP is greater than the 50% difference between baseline and maximum response. Data were analyzed using ANOVA statistical analysis (p<0.05).

anesthetized rabbit [2] = assay: In Vivo Comparative Erectile Responses—I: intracavernosal pressure after intracavernosal injection; parameters: species or system Male New Zealand white rabbits
Description: (§1) Male New Zealand white rabbits weighing 2.5 kg were used as the animal model. Animals were first relaxed with an i.m. injection of 25 mg/kg ketamine prior to anesthesia with a bolus i.v. injection of 10 mg/kg Profol and maintained with i.v. infusion at 0.5 mg/kg/minutes. Ventilation of the animals was performed with 1% halothane plus 0.8 L/min O2 and 1 L/min N2O. A 22 gauge angiocatheter was placed in the femoral artery for measurement of systemic blood pressure. A dorsal incision was made in the penis and the corpora cavemosum exposed and cannulated with a 21 gauge butterfly needle to measure intracavernosal pressure.
(§2) Drugs at various concentrations were delivered intracavernosally at a volume of 150 μl through a 25 gauge needle. A 150 μl solution of a mixture of papaverine ([…]), phentolamine ([…]) and prostaglandin El (10 μg/ml) (pap/phent/PGE1) was injected in the corpora as a standard solution for comparison with the response of yohimbine, Example 1, Example 2, and the combination of yohimbine and Example 1. This pap/phent/PGE1 mixture is considered to cause a maximal erection-inducing effect.

anesthetized rabbit [3] = assay: In Vivo Comparative Erectile Responses—I: systemic blood pressure after intracavernosal injection; parameters: species or system Male New Zealand white rabbits; conditions: 500 μg, FIG. 5A
Description: as §1, §2

With “4-[2-(Dimethylamino)ethoxy]-2-methyl-5-(methylethyl)phenyl 2-({N-[2-methyl-2-(nitrosothio)propyl]carbamoyl}methoxy)acetate, Fumaric Acid Salt [Example 9]” the “doses needed to produce a robust increase of ICP” value (anesthetized rabbit [1]; 0.2-1.6 mg tested, FIG. 8 to FIG. 11) was “lower than the doses of Example 10” and the “duration of the erectile response” value (anesthetized rabbit [1]; 0.2-1.6 mg tested, FIG. 9) was “somewhat shorter than that of Example 10”.
With `Cc1cc(OCCN(C)C)c(C(C)C)cc1OC(=O)CCC(=O)OCCC1(SN=O)C2CC3CC(C2)CC1C3.O=C(O)/C=C/C(=O)O` (centres unmarked) [Example 10, 4-[2-(dimethylamino)ethoxy]-2-methyl-5-(methylethyl)phenyl 2-[2-(nitrosothio)adamantan-2-yl]ethyl butane-1,4-dioate, Fumaric Acid Salt] the “peak erectile response, increase of ICP (magnitude)” value (anesthetized rabbit [1]; 1.07 mg, FIG. 10) was “moderate”, the “duration of the erectile response” value (anesthetized rabbit [1]; 1.07 mg, FIG. 11) was “short-lasting” and the “duration of increase in intracavernosal pressure” value (anesthetized rabbit [1]; 2.13 mg) was “robust effect”. For the same molecule, the “magnitude of increase in intracavernosal pressure” value (anesthetized rabbit [1]; 2.13 mg) was “robust effect”, the “duration of increase in intracavernosal pressure” value (anesthetized rabbit [1]; 4.26 mg) was “robust effect” and the “duration of the erectile response” value (anesthetized rabbit [1]; 4.26 mg) was “exceeded 120 minutes”. The “magnitude of increase in intracavernosal pressure” value (anesthetized rabbit [1]; 4.26 mg) was “robust effect”.
For `COC(=O)[C@@H]1[C@H]2C[C@H]3c4[nH]c5ccccc5c4CCN3C[C@@H]2CC[C@@H]1O` [yohimbine, reference compound], the “percent peak erectile response relative to pap/phent/PGE1” value (anesthetized rabbit [2]; 150 μg and 500 μg, FIG. 1) was “dose dependently induced erectile response” and the “duration of the erectile response” value (anesthetized rabbit [2]; submaximal (150 μg) and maximal (500 μg) efficacy doses, FIG. 2) was “very short duration of action”.
With `Cc1cc(OCCN(C)C)c(C(C)C)cc1OC(=O)CC(C)(C)SN=O.Cl` [Example 6, 4-[2-(Dimethylamino)ethoxy]-2-methyl-5-(methylethyl)phenyl 3-methyl-3-(nitrosothio)butanoate Hydrochloride] the “percent peak erectile response relative to pap/phent/PGE1” value (anesthetized rabbit [2]; 1 mg dose) was “more efficacious than 1 mg moxisylyte”, the “duration of the erectile response” value (anesthetized rabbit [2]; 1 mg, FIG. 7) was “longer duration of erectile response compared to 1 mg moxisylyte” and the “duration of the erectile response” value (anesthetized rabbit [2]; 2 mg, FIG. 7) was “much longer duration of action compared to 2 mg moxisylyte”.
In the case of `N[C@@H](CCC(=O)N[C@@H](CSN=O)C(=O)NCC(=O)O)C(=O)O` [Example 1, 4-(N-{(1R)-1-[N-(carboxymethyl)carbamoyl]-2-(nitrosothio)ethyl}carbamoyl)(2S)-2-aminobutanoic Acid], the “percent peak erectile response relative to pap/phent/PGE1” value (anesthetized rabbit [2]; 500 μg dose) is reported as “near maximal response” and the “duration of the erectile response” value (anesthetized rabbit [2]; 500 μg, FIG. 2) is reported as “much longer duration of action”.
In the case of “2-Acyl-17α(3-methyl-3-(nitrosothio)butanoxy)yohimban-16α-carboxylic Acid methyl ester hydrochloride Salt [Example 2]”, the “effect on systemic blood pressure” value (anesthetized rabbit [3]) is reported as “did not produce any effect on systemic blood pressure”, the “duration of the erectile response” value (anesthetized rabbit [2]; 500 μg and 1 mg, FIG. 4) is reported as “longer duration of action compared to yohimbine” and the “percent peak erectile response relative to pap/phent/PGE1” value (anesthetized rabbit [2]; 500 μg dose) is reported as “equipotent to the standard dose of pap/phent/PGE1”. For the same molecule, the “percent peak erectile response relative to pap/phent/PGE1” value (anesthetized rabbit [2]; 1 mg dose) was “at least equal to or more efficacious than the standard dose of the pap/phent/PGE1 mixture”.
